Experimental findings from the supplement of paper PMC10307832 are described below.

Test in all cases: relative viability (nuclei count vs DMSO), 5 days (fraction); higher = more cells survive
Compound in test [1]: C1COCCN1C2=NC(=NC3=C2OC4=C3C=CC=N4)C5=CC(=CC=C5)NC(=O)C6=CN=C(C=C6)N + COc1cc2c(Oc3ccc(NC(=O)C4(C(=O)Nc5ccc(F)cc5)CC4)cc3F)ccnc2cc1OCCCN1CCOCC1 [Foretinib] (partner 0.25 µM)
The gist of the method: (§1)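 Relative viability was taken as the ratio of nuclei in treated wells to nuclei in vehicle wells. Lung cancer cell lines in 1536-well plates received compounds by pin tool one day after seeding, either one drug alone or a fixed anchor-drug dose plus five library-drug doses (not always all listed) in √10 steps. Nuclei were counted on 4× images after 5 days of treatment, and values are medians of duplicate plates.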

Compound in test [2]: C1COCCN1C2=NC(=NC3=C2OC4=C3C=CC=N4)C5=CC(=CC=C5)NC(=O)C6=CN=C(C=C6)N + C[C@@H](Oc1cc(-c2cnn(C3CCNCC3)c2)cnc1N)c1c(Cl)ccc(F)c1Cl [Crizotinib] (partner 1 µM)
The gist of the method: as §1

Compound in the test “SGI-1776 + Olaparib”: CN1CCC(CNc2ccc3ncc(-c4cccc(OC(F)(F)F)c4)n3n2)CC1 [SGI-1776] + O=C(c1cc(Cc2n[nH]c(=O)c3ccccc23)ccc1F)N1CCN(C(=O)C2CC2)CC1 [Olaparib] (partner 8 µM)
The method, boiled down:
as §1

Compound in the test “Entinostat + OSI-027”: Nc1ccccc1NC(=O)c1ccc(CNC(=O)OCc2cccnc2)cc1 [Entinostat] + COc1cccc2cc(-c3nc([C@H]4CC[C@H](C(=O)O)CC4)n4ncnc(N)c34)[nH]c12 [OSI-027] (partner 0.5 µM)
The gist of the method:
as §1

With UMC-11, the relative viability in test [1] (first compound 0.02 µM) was 1.05; in test [1] (first compound 0.06325 µM) it was 1.08; in test [1] (first compound 0.2 µM), 1.21; in test [1] (first compound 0.6325 µM), 1.19; in test [1] (first compound 2 µM), 0.871; in test [2] (first compound 0.02 µM), 0.564. For the same cell line, the relative viability in test [2] (first compound 0.06325 µM) worked out at 0.59; in test [2] (first compound 0.2 µM), 0.677; in test [2] (first compound 0.6325 µM) it was 0.672; in test [2] (first compound 2 µM), 0.498; in the test with SGI-1776 + Olaparib (first compound 0.08 µM), 0.337; with SGI-1776 + Olaparib (first compound 0.8 µM), 0.433. In addition, the relative viability with SGI-1776 + Olaparib (first compound 2.53 µM) was found to be 0.289; with SGI-1776 + Olaparib (first compound 8 µM), 0.206; in the test with Entinostat + OSI-027 (first compound 0.02 µM), 0.445; with Entinostat + OSI-027 (first compound 0.06325 µM), 0.499; in the test with Entinostat + OSI-027 (first compound 0.2 µM) it was 0.388; with Entinostat + OSI-027 (first compound 0.6325 µM) it was 0.207. In addition, in the test with Entinostat + OSI-027 (first compound 2 µM), the relative viability was 0.213.
